Laboratory results published in patent US20250073281A1, “LACTOBACILLUS REUTERI HAVING IMPROVED ANTI-AGING AND HAIR HEALTH ENHANCEMENT EFFECTS, AND APPLICATION THEREOF” (priority 2021, published 2025).
Converted amounts (≈) assume the structure as drawn. Where two headings read alike, the source gives them in different places.

Test system: Lactobacillus reuteri VHProbi E18
Assay: Antibiotic tolerance experiment, MIC by broth microdilution
Assay type: cell-based
Settings: for MIC: antibiotic against Lactobacillus reuteri VHProbi E18
Protocol: The minimum inhibitory concentration (MIC) value of antibiotics against Lactobacillus reuteri VHProbi E18 was determined by the broth microdilution method.

[1] = Limosilactobacillus reuteri, read-out: MIC

## Gentamicin
  MIC: 256 mg/L

## CC1(C)S[C@@H]2[C@H](NC(=O)[C@H](N)c3ccccc3)C(=O)N2[C@H]1C(=O)O [Ampicillin]
  sensitivity of Lactobacillus reuteri VHProbi E18 to the antibiotic: sensitive
[1]
  MIC: 1 mg/L (≈ 2.86 µM)

## CCC[C@@H]1C[C@@H](C(=O)N[C@@H]([C@H]2O[C@H](SC)[C@H](O)[C@@H](O)[C@H]2O)[C@H](C)Cl)N(C)C1 [Clindamycin]
[1]
  MIC: 256 mg/L (≈ 602 µM)

## CN(C)[C@@H]1C(O)=C(C(N)=O)C(=O)[C@@]2(O)C(O)=C3C(=O)c4c(O)cccc4[C@@](C)(O)[C@H]3C[C@@H]12 [Tetracycline]
[1]
  MIC: 16 mg/L (≈ 36 µM)

## CC[C@H]1OC(=O)[C@H](C)[C@@H](O[C@H]2C[C@@](C)(OC)[C@@H](O)[C@H](C)O2)[C@H](C)[C@@H](O[C@@H]2O[C@H](C)C[C@H](N(C)C)[C@H]2O)[C@](C)(O)C[C@@H](C)C(=O)[C@H](C)[C@@H](O)[C@]1(C)O [Erythromycin]
  sensitivity of Lactobacillus reuteri VHProbi E18 to the antibiotic: sensitive
[1]
  MIC: 1 mg/L (≈ 1.36 µM)

## [H]/N=C(/N)N[C@H]1[C@H](O)[C@@H](O)[C@H](O[C@@H]2O[C@@H](C)[C@](O)(C=O)[C@H]2O[C@@H]2O[C@@H](CO)[C@H](O)[C@@H](O)[C@@H]2NC)[C@@H](N/C(N)=N\[H])[C@@H]1O [Streptomycin]
[1]
  MIC: 512 mg/L (≈ 880 µM)
